For series [1] the following is noted: rat, in vivo, cited from earlier work.
A short description of another series: in vivo. The settings on record: male, Wistar, rat, po, 100 mg/kg. The protocol:
Pharmacokinetic investigation was performed in 4 male Wistar rats (weighing 200–350 g) following a single oral dose of 100 mg/kg body weight plumbagin (1 mL). The control group received 20 % Tween-80 (1 mL). Blood samples (500 μL each) were collected from the tail vein of each rat at 0, 1, 2, 3, 5, 8, 24, 48, and 72 h after dosing. Plasma was separated from whole blood samples through centrifugation at 3000 × g for 10 min.
Concentrations of plumbagin in plasma and urine samples collected from all animals were measured using liquid chromatographic-mass spectrometry (LC-MS/MS) according to the previously described method with modifications. The limits of quantification (LOQ) and detection (LOD) for plumbagin were 5 and 2 ng/mL plasma, respectively. Recovery of the compound in plasma after sample preparation procedure was between 82 and 92 %. The assay intra- and inter-day coefficients of variation (% CV) were 0.7–4.7 % and 3.9–8.3 %, respectively. In brief, plasma sample (100 μL) was mixed with 10 ng/mL honokiol (5 μL) and ethyl acetate (1 mL) and centrifuged at 12,000 × g for 15 min. The upper layer was transferred to a new tube and evaporated to dryness under nitrogen flow. The dried residue was reconstituted with 100 μL of the mobile phase and a 5 μL aliquot was injected onto the LC–MS/MS. The samples were collected from the metabolic cages at 24, 48, 72, 96, and 120 h. All were centrifuged at 1500 × g for 10 min and the supernatant (100 μL) was extracted with ethyl acetate (1 mL). The extract was dried and the residue was reconstituted with 100 μL of the mobile phase and a 5 μL aliquot was injected onto the LC–MS/MS.
The LC-MS/MS system used consists of Agilent 1100 Separation Module (Agilent Technologies, CA, USA) solvent and sample delivery, Av QTRAP 5500 Triple Quadrupole Mass Spectrometer (AB Sciex, Foster City, CA, USA) equipped with CID, and Multiple Reactions Monitoring (MRM). Mass spectrometric analysis was performed in the negative-ion mode (ESI). The following parameters of the turbo ion spray were used: ion spray voltage = −4500 V; the ion source gas 1 (GS1), gas 2 (GS2), curtain gas (CUR) and collision gas (CAD) were 50, 60, 25 and 5, respectively; and the desolvation gas (nitrogen) heated to 500 °C. Separation was performed using Hypersil gold reversed-phase C18 column (50 mm × 4.6 mm i.d., 5 μM: Thermo Scientific, Fremont, CA, USA) with the mobile phase consisting of a mixture of (A) water containing 0.1 % formic acid and (B) 100 % methanol, running with gradient mode at the flow rate of 0.6 mL/min at 25 °C (Table 1). On the basic of the full-scan mass spectra of each analyze, the most abundant ions were selected and the mass spectrometer was set to monitor the transitions of the precursors to the product ions as follows: m/z 187– >159 for plumbagin, and 265– >224 for honokiol (internal standard). The system was controlled by Analyst^TM software (AB Sciex, Foster City, CA, USA).
Pharmacokinetic parameters were determined using a non-compartmental analysis using WinNonLin^TM software (version 6.3, Pharsights, Certara, USA). Concentrations of drugs lower than the limit of quantification (LOQ) were expressed as zero (undetectable). The Cmax (maximum concentration); tmax (time of maximum concentration) were determined by direct inspection of the plasma concentration–time data. […] The extrapolated AUC from the last sampling time to infinity was estimated from Ct/elimination rate constant (λz). λz was calculated from at least five concentration–time points of elimination phase. Apparent oral clearance (CL/F) was calculated as dose/AUC0−∞. Volume of distribution (Vz/F) was calculated as CL/F/z, and the terminal half-life (t1/2z) was calculated as 0.693/λz. Mean residence time (MRT) was calculated from the ratio of AUMC0-α)/AUC0−∞.

As a reminder, the AUC(0-inf) is total exposure, with the tail of the curve extrapolated. Low values mean low exposure, high ones high exposure. For orientation: AUC(0-t) means exposure summed from dosing to a finite time, without extrapolation to infinity. The low end stands for low exposure, the high end for high exposure. By CL/F is commonly meant the apparent clearance, not corrected for the fraction that reaches the circulation. The Cmax is the peak of the concentration-time curve. As a reminder, the Tmax is the time from dosing to the highest level. Broadly, the Vd/F is the volume of distribution divided by bioavailability. What is called half-life is the time needed for the level to fall by half in the phase considered. For the compound `CC1=CC(=O)c2c(O)cccc2C1=O` [plumbagin, 5-hydroxy-2-methyl-1,4-naphthoquinone], the oral bioavailability in series [1] (po) was 39%. Further, in series [1], the “elimination half-life (t1/2), mean” value is on record as 17 h; the “mean residence time (MRT), mean” value was 22 h; the “time to reach maximum blood concentration (tmax)” value is on record as 2.5 h. In the series “in vivo”, this compound had an AUC(0-inf) of 6710 ng·h/mL, an AUC(0-t) of 6510 ng·h/mL, a CL/F of 250 mL/min/kg and a Cmax of 460 ng/mL. Besides, in “in vivo”, the Tmax was found to be 5 h, the Vd/F was determined as 220 L/kg, the “t1/2 (elimination half-life)” value is on record as 9.63 (3.04) h and the “time up to which detected in systemic circulation” value is on record as 48 h. Besides, in “in vivo”, the “time up to which detected in urine (complete elimination in urine)” value came to 96 h. The “plumbagin excreted in urine” value in the series “in vivo” (72 h) is listed as 15 (9) μg. This compound gave a half-life in “in vivo” (t1/2 (elimination half-life)) of around 576 min.

The record behind these values is article PMC5108082, “Pharmacokinetics, toxicity, and cytochrome P450 modulatory activity of plumbagin” (BMC Pharmacology & Toxicology, 2016).
